Assay results published in the kinase profiling compilation of Christmann-Franck et al. (2016).
Where “and” joins values, the source holds several entries; their conditions need not be identical. Identical values can stand only once.

Experiments:
Assay in all cases: radiometric filter-binding kinase assay, Kinase HotSpot
Conditions in all cases: compound 0.5 µM; ATP 10 µM
MAPK11 (human) = MAPK11 (human) (UniProt Q15759)
TEK (human) = TEK (human) (UniProt Q02763)
ABL2 (human) = ABL2 (human) (UniProt P42684)
MAP3K14 (human) = MAP3K14 (human) (UniProt Q99558)
MST4 (human) = MST4 (human) (UniProt Q9P289)
EPHA2 (human) = EPHA2 (human) (UniProt P29317)
PDGFRB (human) = PDGFRB (human) (UniProt P09619)
LTK (human) = LTK (human) (UniProt P29376)
AURKB (human) = AURKB (human) (UniProt Q96GD4)
FYN (human) = FYN (human) (UniProt P06241)
PAK1 (human) = PAK1 (human) (UniProt Q13153)
FGFR3 (human) = FGFR3 (human) (UniProt P22607)
PAK3 (human) = PAK3 (human) (UniProt O75914)
FLT3 (human) = FLT3 (human) (UniProt P36888)
CAMK4 (human) = CAMK4 (human) (UniProt Q16566)
IRAK1 (human) = IRAK1 (human) (UniProt P51617)
DAPK3 (human) = DAPK3 (human) (UniProt O43293)
EPHA4 (human) = EPHA4 (human) (UniProt P54764)
CAMK2G (human) = CAMK2G (human) (UniProt Q13555)
MLTK (human) = MLTK (human) (UniProt Q9NYL2)
BMX (human) = BMX (human) (UniProt P51813)
PNCK (human) = PNCK (human) (UniProt Q6P2M8)
EPHB2 (human) = EPHB2 (human) (UniProt P29323)
RPS6KB2 (human) = RPS6KB2 (human) (UniProt Q9UBS0)
AURKA (human) = AURKA (human) (UniProt O14965)
PRKX (human) = PRKX (human) (UniProt P51817)
MINK1 (human) = MINK1 (human) (UniProt Q8N4C8)
EPHA3 (human) = EPHA3 (human) (UniProt P29320)
MARK2 (human) = MARK2 (human) (UniProt Q7KZI7)
BLK (human) = BLK (human) (UniProt P51451)
DSTYK (human) = DSTYK (human) (UniProt Q6XUX3)
CDK1 CCNA2 (human) = CDK1 CCNA2 (human) (UniProt P06493+P20248)
MAP2K1 (human) = MAP2K1 (human) (UniProt Q02750)
ROCK2 (human) = ROCK2 (human) (UniProt O75116)
DYRK3 (human) = DYRK3 (human) (UniProt O43781)
PRKG1 (human) = PRKG1 (human) (UniProt Q13976)
PDGFRA (human) = PDGFRA (human) (UniProt P16234)
TXK (human) = TXK (human) (UniProt P42681)
PRKCE (human) = PRKCE (human) (UniProt Q02156)
GSG2 (human) = GSG2 (human) (UniProt Q8TF76)
CHEK2 (human) = CHEK2 (human) (UniProt O96017)
BRSK1 (human) = BRSK1 (human) (UniProt Q8TDC3)

Chain of EPHA2 (human) (P29317 whole entry, looked up): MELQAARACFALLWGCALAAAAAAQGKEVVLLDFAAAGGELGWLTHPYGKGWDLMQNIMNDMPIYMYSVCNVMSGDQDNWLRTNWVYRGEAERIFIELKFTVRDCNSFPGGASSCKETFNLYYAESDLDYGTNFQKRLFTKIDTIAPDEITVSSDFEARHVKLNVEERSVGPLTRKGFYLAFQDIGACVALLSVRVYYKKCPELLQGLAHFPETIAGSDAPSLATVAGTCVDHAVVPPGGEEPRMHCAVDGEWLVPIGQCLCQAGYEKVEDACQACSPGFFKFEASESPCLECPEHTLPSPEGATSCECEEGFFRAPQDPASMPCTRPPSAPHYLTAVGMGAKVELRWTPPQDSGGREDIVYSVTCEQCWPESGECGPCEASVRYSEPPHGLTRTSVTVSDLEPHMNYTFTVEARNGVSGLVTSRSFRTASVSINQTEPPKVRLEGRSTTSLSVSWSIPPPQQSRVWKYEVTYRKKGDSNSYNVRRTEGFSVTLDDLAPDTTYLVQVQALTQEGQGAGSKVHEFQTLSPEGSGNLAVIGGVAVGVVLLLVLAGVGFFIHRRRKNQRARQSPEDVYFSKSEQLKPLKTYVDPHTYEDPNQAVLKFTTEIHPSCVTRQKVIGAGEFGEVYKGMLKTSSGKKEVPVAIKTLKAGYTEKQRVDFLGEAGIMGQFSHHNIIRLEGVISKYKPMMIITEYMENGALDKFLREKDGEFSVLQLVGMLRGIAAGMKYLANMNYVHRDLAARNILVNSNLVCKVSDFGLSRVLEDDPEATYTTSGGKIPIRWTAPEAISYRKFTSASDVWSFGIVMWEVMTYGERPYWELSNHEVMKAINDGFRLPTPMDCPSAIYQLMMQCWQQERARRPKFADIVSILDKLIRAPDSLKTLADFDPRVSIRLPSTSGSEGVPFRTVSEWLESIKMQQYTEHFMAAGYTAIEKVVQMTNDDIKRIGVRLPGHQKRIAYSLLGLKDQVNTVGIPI
Chain of DAPK3 (human) (O43293 whole entry, looked up): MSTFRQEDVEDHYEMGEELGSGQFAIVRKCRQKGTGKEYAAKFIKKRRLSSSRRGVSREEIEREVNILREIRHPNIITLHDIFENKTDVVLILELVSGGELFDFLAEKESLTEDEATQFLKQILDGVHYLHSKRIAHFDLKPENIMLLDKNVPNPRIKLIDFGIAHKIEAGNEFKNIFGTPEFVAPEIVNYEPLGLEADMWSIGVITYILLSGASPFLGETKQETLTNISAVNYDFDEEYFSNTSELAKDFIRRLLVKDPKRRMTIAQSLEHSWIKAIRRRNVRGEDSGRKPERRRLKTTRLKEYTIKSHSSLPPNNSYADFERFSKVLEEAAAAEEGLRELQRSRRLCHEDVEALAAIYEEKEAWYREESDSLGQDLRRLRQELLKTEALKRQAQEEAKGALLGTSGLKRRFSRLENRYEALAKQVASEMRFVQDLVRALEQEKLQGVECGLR
Chain of PAK3 (human) (O75914 whole entry, looked up): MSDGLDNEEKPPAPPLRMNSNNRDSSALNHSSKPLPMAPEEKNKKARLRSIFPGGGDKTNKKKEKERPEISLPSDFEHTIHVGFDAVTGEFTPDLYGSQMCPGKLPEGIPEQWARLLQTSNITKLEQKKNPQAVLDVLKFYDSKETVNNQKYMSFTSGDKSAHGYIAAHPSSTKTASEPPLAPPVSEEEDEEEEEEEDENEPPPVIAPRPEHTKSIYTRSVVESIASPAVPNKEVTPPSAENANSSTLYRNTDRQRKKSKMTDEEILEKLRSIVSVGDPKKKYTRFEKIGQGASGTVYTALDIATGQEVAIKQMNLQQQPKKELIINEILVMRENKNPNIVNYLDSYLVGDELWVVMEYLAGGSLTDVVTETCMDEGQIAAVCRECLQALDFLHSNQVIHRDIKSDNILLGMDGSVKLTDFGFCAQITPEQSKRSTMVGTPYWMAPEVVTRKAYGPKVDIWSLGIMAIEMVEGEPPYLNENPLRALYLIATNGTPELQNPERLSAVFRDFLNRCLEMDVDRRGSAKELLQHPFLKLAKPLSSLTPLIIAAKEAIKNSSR
Chain of PRKCE (human) (Q02156 whole entry, looked up): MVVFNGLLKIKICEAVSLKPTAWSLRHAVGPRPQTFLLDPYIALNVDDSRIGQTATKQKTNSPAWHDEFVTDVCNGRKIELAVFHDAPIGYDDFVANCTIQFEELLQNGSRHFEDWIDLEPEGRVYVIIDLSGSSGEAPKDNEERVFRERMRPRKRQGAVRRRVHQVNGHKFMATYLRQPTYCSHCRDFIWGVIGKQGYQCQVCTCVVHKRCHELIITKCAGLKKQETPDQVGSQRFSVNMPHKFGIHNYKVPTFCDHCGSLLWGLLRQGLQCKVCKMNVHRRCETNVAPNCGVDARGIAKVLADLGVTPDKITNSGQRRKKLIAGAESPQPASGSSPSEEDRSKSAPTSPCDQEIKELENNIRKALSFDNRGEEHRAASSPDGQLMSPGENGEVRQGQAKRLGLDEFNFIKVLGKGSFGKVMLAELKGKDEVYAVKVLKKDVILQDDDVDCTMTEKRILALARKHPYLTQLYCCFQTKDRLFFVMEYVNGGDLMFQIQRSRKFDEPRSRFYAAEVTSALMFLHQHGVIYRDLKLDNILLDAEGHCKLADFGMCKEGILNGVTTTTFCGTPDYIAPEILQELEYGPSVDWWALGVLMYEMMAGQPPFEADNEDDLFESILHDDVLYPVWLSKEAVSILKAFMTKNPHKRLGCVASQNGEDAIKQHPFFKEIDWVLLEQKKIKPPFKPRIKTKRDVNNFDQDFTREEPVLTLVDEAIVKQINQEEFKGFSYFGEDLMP
Chain of LTK (human) (P29376 whole entry, looked up): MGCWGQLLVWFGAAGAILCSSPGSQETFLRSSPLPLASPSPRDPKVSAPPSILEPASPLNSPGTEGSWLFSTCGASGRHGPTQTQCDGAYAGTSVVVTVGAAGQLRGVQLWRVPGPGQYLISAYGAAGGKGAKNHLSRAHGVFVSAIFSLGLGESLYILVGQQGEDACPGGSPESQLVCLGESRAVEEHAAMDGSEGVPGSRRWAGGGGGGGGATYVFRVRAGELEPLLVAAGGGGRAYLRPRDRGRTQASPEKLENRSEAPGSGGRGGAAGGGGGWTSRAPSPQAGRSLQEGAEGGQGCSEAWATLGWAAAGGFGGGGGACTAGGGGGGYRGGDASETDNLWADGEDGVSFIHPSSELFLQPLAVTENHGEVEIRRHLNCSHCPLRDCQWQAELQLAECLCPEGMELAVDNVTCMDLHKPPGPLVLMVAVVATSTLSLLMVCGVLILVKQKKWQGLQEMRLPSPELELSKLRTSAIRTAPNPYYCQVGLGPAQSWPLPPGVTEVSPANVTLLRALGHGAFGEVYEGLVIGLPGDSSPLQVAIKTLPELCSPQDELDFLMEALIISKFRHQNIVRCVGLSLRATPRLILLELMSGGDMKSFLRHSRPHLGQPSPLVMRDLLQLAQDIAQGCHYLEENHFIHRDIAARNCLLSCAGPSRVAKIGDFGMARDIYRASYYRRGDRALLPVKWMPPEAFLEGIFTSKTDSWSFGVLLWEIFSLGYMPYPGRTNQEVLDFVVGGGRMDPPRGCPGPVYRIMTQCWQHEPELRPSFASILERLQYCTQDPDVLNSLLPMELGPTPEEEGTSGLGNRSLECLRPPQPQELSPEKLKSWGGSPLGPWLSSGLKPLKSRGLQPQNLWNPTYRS
Chain of MST4 (human) (Q9P289 whole entry, looked up): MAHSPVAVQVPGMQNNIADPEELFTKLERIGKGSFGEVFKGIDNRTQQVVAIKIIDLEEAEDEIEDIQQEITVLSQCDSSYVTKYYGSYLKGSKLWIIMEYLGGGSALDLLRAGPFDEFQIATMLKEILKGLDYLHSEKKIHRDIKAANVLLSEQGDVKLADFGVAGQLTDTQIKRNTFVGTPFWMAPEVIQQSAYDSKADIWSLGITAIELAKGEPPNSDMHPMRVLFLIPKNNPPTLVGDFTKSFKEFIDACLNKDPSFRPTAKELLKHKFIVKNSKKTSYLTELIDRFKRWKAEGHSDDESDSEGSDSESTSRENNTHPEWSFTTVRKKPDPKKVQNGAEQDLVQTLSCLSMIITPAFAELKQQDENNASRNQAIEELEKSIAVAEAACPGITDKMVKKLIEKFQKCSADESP
Chain of CAMK4 (human) (Q16566 whole entry, looked up): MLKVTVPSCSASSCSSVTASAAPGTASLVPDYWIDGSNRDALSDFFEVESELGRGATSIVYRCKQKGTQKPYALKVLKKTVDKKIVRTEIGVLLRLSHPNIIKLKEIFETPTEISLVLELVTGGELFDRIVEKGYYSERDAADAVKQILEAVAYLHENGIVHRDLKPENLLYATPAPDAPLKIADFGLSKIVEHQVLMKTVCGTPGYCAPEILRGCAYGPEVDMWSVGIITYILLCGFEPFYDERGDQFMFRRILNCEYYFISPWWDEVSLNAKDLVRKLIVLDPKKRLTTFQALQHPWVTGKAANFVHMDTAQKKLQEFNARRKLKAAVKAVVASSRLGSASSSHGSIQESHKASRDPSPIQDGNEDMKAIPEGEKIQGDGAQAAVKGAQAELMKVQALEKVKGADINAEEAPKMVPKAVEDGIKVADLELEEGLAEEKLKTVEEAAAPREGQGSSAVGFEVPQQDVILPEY
Chain of PAK1 (human) (Q13153 whole entry, looked up): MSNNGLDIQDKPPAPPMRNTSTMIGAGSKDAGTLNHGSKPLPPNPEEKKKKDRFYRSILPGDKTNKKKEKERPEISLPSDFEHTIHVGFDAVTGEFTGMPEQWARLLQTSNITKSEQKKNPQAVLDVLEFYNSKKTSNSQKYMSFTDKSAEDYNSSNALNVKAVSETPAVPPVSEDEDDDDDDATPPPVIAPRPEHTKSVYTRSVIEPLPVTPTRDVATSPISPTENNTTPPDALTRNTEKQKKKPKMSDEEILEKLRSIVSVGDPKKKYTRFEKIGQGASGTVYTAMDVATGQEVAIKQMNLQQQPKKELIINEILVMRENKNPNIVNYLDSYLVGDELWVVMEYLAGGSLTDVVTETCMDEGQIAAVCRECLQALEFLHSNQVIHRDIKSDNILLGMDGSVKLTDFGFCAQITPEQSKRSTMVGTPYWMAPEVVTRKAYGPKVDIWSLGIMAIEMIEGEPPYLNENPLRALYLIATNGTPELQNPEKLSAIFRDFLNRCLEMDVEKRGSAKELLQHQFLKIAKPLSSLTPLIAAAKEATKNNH

Cc1cc(Nc2nc(-c3ccccc3)nc3ccccc23)n[nH]1 was tested, and the residual activity (MAPK11 (human)) was 96.8%, the residual activity (TEK (human)) was 104% and the residual activity (ABL2 (human)) was 42.5%. The residual activity (MAP3K14 (human)) was 93.5%, the residual activity (MST4 (human)) was 91.2% and the residual activity (EPHA2 (human)) was 94.8%. It also gave a residual activity (PDGFRB (human)) of 55.4%, a residual activity (LTK (human)) of 63.6% and a residual activity (AURKB (human)) of 52%. For the same compound, the residual activity (FYN (human)) was 40%, the residual activity (PAK1 (human)) was 79.5% and the residual activity (FGFR3 (human)) was 71.7%. For the same compound, the residual activity (PAK3 (human)) was 90.2%, the residual activity (FLT3 (human)) was 10.5% and the residual activity (CAMK4 (human)) was 94.1%. It also gave a residual activity (IRAK1 (human)) of 79.3%, a residual activity (DAPK3 (human)) of 57.5% and a residual activity (EPHA4 (human)) of 70.7%. The residual activity (CAMK2G (human)) was 95.9%, the residual activity (MLTK (human)) was 87.1% and the residual activity (BMX (human)) was 41.1%. It also gave a residual activity (PNCK (human)) of 102%, a residual activity (EPHB2 (human)) of 76.7% and a residual activity (RPS6KB2 (human)) of 99.7%. It also gave a residual activity (AURKA (human)) of 19.8%, a residual activity (PRKX (human)) of 101% and a residual activity (MINK1 (human)) of 35.6%. It also gave a residual activity (EPHA3 (human)) of 88.9%, a residual activity (MARK2 (human)) of 89.6% and a residual activity (BLK (human)) of 56.2%. For the same compound, the residual activity (DSTYK (human)) was 86%, the residual activity (CDK1 CCNA2 (human)) was 95% and the residual activity (MAP2K1 (human)) was 91.6%. For the same compound, the residual activity (ROCK2 (human)) was 87.6%, the residual activity (DYRK3 (human)) was 81.9% and the residual activity (PRKG1 (human)) was 94.9% and 97.3%. The residual activity (PDGFRA (human)) was 81.6%, the residual activity (TXK (human)) was 45.3% and the residual activity (PRKCE (human)) was 87.1%. For the same compound, the residual activity (GSG2 (human)) was 90.5% and the residual activity (CHEK2 (human)) was 31.3%.

In the case of COc1cc2c(N3CCN(C(=O)Nc4ccc(OC(C)C)cc4)CC3)ncnc2cc1OCCCN1CCCCC1, the residual activity (MAPK11 (human)) is reported as 105%, the residual activity (TEK (human)) is reported as 99.6% and the residual activity (MAP3K14 (human)) is reported as 98.6%. It also gave a residual activity (MST4 (human)) of 101%, a residual activity (EPHA2 (human)) of 102% and a residual activity (LTK (human)) of 101%. The residual activity (AURKB (human)) was 89.6%, the residual activity (FYN (human)) was 94.8% and the residual activity (PAK1 (human)) was 107%. The residual activity (FGFR3 (human)) was 93.2%, the residual activity (PAK3 (human)) was 105% and the residual activity (CAMK4 (human)) was 99.3%. It also gave a residual activity (IRAK1 (human)) of 96.1%, a residual activity (DAPK3 (human)) of 101% and a residual activity (EPHA4 (human)) of 96.4%. The residual activity (CAMK2G (human)) was 101%, the residual activity (MLTK (human)) was 99.7% and the residual activity (BMX (human)) was 109%. The residual activity (PNCK (human)) was 97.7%, the residual activity (EPHB2 (human)) was 97.6% and the residual activity (RPS6KB2 (human)) was 102%. The residual activity (AURKA (human)) was 108%, the residual activity (PRKX (human)) was 108% and the residual activity (MINK1 (human)) was 99%. The residual activity (EPHA3 (human)) was 94.7%, the residual activity (MARK2 (human)) was 109% and the residual activity (BLK (human)) was 100%. The residual activity (BRSK1 (human)) was 103%, the residual activity (DSTYK (human)) was 92.7% and the residual activity (CDK1 CCNA2 (human)) was 96%. The residual activity (MAP2K1 (human)) was 113%, the residual activity (ROCK2 (human)) was 90.8% and the residual activity (DYRK3 (human)) was 109%. The residual activity (PRKG1 (human)) was 102% and 82.5%, the residual activity (PDGFRA (human)) was 11.1% and the residual activity (TXK (human)) was 105%. The residual activity (PRKCE (human)) was 104%, the residual activity (GSG2 (human)) was 99.5% and the residual activity (CHEK2 (human)) was 100%.

For COc1cc2c(Nc3ccc(Br)cc3F)ncnc2cc1OCC1CCN(C)CC1, the residual activity (MAPK11 (human)) was 97.1%, the residual activity (TEK (human)) was 50.8% and the residual activity (ABL2 (human)) was 14%. It also gave a residual activity (MAP3K14 (human)) of 155%, a residual activity (MST4 (human)) of 102% and a residual activity (EPHA2 (human)) of 21.5%. The residual activity (LTK (human)) was 64.6%, the residual activity (AURKB (human)) was 95.5% and the residual activity (FYN (human)) was 48.2%. It also gave a residual activity (PAK1 (human)) of 108%, a residual activity (PAK3 (human)) of 103% and a residual activity (FLT3 (human)) of 43.7%. For the same compound, the residual activity (CAMK4 (human)) was 101%, the residual activity (IRAK1 (human)) was 87.7% and the residual activity (DAPK3 (human)) was 90.3%. It also gave a residual activity (CAMK2G (human)) of 112%, a residual activity (BMX (human)) of 88.4% and a residual activity (PNCK (human)) of 99.5%. The residual activity (EPHB2 (human)) was 24.4%, the residual activity (RPS6KB2 (human)) was 101% and the residual activity (PRKX (human)) was 105%. It also gave a residual activity (MINK1 (human)) of 81.5%, a residual activity (EPHA3 (human)) of 57.7% and a residual activity (MARK2 (human)) of 107%. For the same compound, the residual activity (BLK (human)) was 33.8%, the residual activity (BRSK1 (human)) was 97.1% and the residual activity (DSTYK (human)) was 96%. For the same compound, the residual activity (CDK1 CCNA2 (human)) was 100%, the residual activity (MAP2K1 (human)) was 105% and the residual activity (ROCK2 (human)) was 90.7%. For the same compound, the residual activity (DYRK3 (human)) was 96%, the residual activity (PRKG1 (human)) was 96.6% and 99.8% and the residual activity (PDGFRA (human)) was 28.6%. For the same compound, the residual activity (TXK (human)) was 57.5%, the residual activity (PRKCE (human)) was 100% and the residual activity (GSG2 (human)) was 92.6%. The residual activity (CHEK2 (human)) was 62.1%.
